Literature values in patent US11628185B2, “Stabilized active oxygen-generating antiseptic compositions, irrigation solutions, and articles” (priority 2021, dated 2023).

Experiments:
[1] = topical application prior to wound closure
[2] = all tested concentrations, even dilute 0.35%; used for more than 1 minute
[3] = test system: osteoblasts, fibroblasts, and myoblasts

Substance: povidone-iodine
- serum iodine level [1]: significant increases
- chondrotoxic effect [2]: pronounced chondrotoxic effect
- effect on cell migration and survival [3]: inhibiting cell migration and survival
- effect of lavage on post-operative infection risk (post-operative infection; Mayo Clinic case series, more than 10,000 THAs and TKAs): no risk reduction effect
- post-operative infection rates versus non-povidone-iodine lavage (post-operative infection; meta-analysis March 2020, seven studies, 31,213 TJA cases): no differences
